Measurements from patent publication US20040086942A1, “Ige receptor antagonists” (priority 2003, published 2004).
Entries after “also recorded” stand apart in the source; their conditions may differ. Like-named read-outs stand apart in the source and are kept apart here. Blank lines part the entries; values can stand above or below the compound they belong to. Where a SMILES comes first, the peptide text is derived from it. Bridges are numbered along the chain shown (N, C = ends). Roman numbers before positions name the chains, in order. Where no end group is shown, it is not given here.

Legend:
[1] = disulfide reshuffling of monomer peptide to homodimer in solution; type: physicochemical; conditions: in water or buffer at neutral pH
Source text: This change occurs slowly, over a 3-12 day period following the solubilization of the peptide in water or buffer at neutral pH. […] Additional support for the occurrence of a change came from NMR data detecting a change in the one-dimensional NMR spectrum. Also HPLC reverse phase data indicated a change in retention time that correlated with the activity and the conversion of a monomer to a dimer. Final confirmation of the formation of an active dimer followed the syntheses of both parallel (IGE088, SEQ ID NO:128, 128) and anti-parallel (IGE089, SEQ ID NOS:128, 157) […] disulfide-linked dimer peptides. Both peptide forms were assayed for activity in inhibiting I^125-IgE binding to cell surface expressed FcεRI.

[2] = biological target: T1, alpha subunit of the human FcεRI receptor (Homo sapiens, UniProt P12319); test: cell-based 125I-IgE binding inhibition assay on CHO FcεRI+ cells
T1 construct: expressed in transfected cells; host or cells: Chinese hamster ovary (CHO FcεRI+) cells
T1 sequence (P12319 26-257): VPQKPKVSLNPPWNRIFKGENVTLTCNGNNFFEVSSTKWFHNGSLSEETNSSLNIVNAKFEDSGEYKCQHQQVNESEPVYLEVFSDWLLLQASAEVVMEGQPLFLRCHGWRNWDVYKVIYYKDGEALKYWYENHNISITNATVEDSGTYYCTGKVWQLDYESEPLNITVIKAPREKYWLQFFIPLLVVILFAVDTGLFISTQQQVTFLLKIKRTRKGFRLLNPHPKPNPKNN
In short: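 Peptides, serially diluted 1:3 from 50-500 uM, preincubated 1 h at room temperature on CHO cells expressing human FcεRI alpha, then 1.5 nM 125I-IgE added for 45-60 min at 4 °C. Buffer F12/DMEM, 1% BSA, 0.05% NaN3, pH 7.2. Bound counts by gamma counting; IC50 from 4-parameter fits.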

[3] = 2D NMR structural score versus reference peptide; type: physicochemical; design: key to Structure Score: +++, peptide structurally similar to reference; +, structurally similar to reference but significantly less stable; +/−, peptide has some elements of stable structure, but the conformation differs from the reference structure; −, peptide is predominantly unstructured; *peptide IGE037 (SEQ ID NO:128) was initially unstructured (monomeric form), but became structured after spontaneous dimer formation; conditions: reference IGE134
In short: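 Backbone ¹H resonances assigned by 2D NMR and ³JHN-Hα coupling constants measured against a reference peptide. Structure scored similar when chemical shifts, coupling constants and NOEs are consistent with the reference structure.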

[4] = biological target: T2, FcεRIα (Homo sapiens, UniProt P12319); test: surface plasmon resonance biosensor direct-binding assay; conditions: for EC50: midpoint of 4-parameter fit to peptide saturation curve, immobilized receptor, read-out: Binding affinity: EC50 (uM) ± s.d.
T2 construct: human FcεRI(aa 1-176) was expressed using a baculovirus secretion expression system; host or cells: Hi-5 insect cells infected with baculovirus (virus produced in Sf9; transfer vector pAcGP67)
T2 sequence (P12319 26-201): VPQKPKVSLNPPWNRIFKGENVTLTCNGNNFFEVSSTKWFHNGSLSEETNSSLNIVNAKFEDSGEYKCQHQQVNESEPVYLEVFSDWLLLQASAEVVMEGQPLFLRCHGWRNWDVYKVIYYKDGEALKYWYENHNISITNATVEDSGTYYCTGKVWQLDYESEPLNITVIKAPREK
Protocol: Several peptides were also tested in a direct-binding assay using a surface plasmon resonance biosensor (Lofas & Johnsson, J. Chem. Soc. Commun. 21, 1526-1528 (1990)). FcεRIα, produced in baculovirus infected insect cells, was immobilized by the surface thiol method (BIAcore Methods Manual Supplement 5a, BIAcore, Inc., Piscataway, N.J.). Briefly, receptor was reacted with 2-(2pyridinyldithio)ethaneamine hydrochloride (PDEA; Natake & Swaisgood, J. Biochem. 74, 77-86 (1973)), desalted into 10 mM sodium acetate (pH 4.8) and stored in aliquots at −80″C. Thawed PDEA-receptor was injected over carboxymethyl-dextran (B1 or CM5, BIAcore, Inc.) biosensor chips preactivated with N-ethyl-N′-(3-dimethylaminopropyl)-carbodiimide hydrochloride (EDC) and N-hydroxysuccinimide (NHS), cystamine, and DTT. Following coupling, reactive groups on the chip were quenched with […] and ethanolarine. Serial dilutions of peptide in running buffer (phosphate-buffered saline containing 0.05% Tween-20, 0.01% sodium azide) were injected over the immobilized receptor, and the net amount of peptide bound at steady-state was measured as the net change in response (RU) at a point just prior to termination of peptide injection, compared to a running-buffer baseline. Binding affinities (Table 10) are reported as the midpoint (EC50) of a 4-parameter fit to the peptide saturation curve.

[5] = solubility in assay/binding buffer; type: physicochemical; conditions: assay buffer of the IgE binding inhibition assay
[6] = biological target: T3, FcεRI (Homo sapiens, UniProt P12319); test: competitive phage ELISA on baculovirus-derived FcεRI; type: binding; conditions: compared with the parent
T3 construct: human FcεRI(aa 1-176) was expressed using a baculovirus secretion expression system; host or cells: Hi-5 insect cells infected with baculovirus (virus produced in Sf9; transfer vector pAcGP67)
T3 sequence (P12319 26-201): T2 sequence (P12319 26-201)
Source text: The extracellular domain of the alpha subunit of the human FcεRI(aa 1-176) was expressed using a baculovirus secretion expression system (Pharminten). cDNA encoding this domain was obtained through PCR of a plasmid containing a full length clone. The DNA fragment was ligated into baculovirus tranfer vector pAcGP67 and along with BaculoGold linearized baculovirus DNA was transfected into Sf9 cells Spodoptera frugiperda insect cells for baculovirus production (Pharmingen). Soluble FcεRI was affinity purified from the growth media of baculovirus infected Hi-5 insect cells (Expression Systems).
Phage ELISA assays were carried out as described (Lowman, 1998, supra), using Nunc Maxisorp™ plates coated with a 2 μg/mL solution of baculovirus-derived FcεRI. Peptide-phage were pre-incubated for 5-10 min with serial dilutions of receptor, then added to the receptor-coated plate. After incubation for 1 h at room temperature, the plates were washed and an anti-phage HRP-conjugated antibody (Pharmacia) was added. After further incubation for 20 min, plates were again washed and developed using the substrate OPD (Sigma). Optical density at 492 nm was read and plotted as a function of FcεRI concentration to determine an IC50 of inhibition by each peptide-phage variant.
A phage-based alanine scanning approach was used to map the FcεRI binding determinants of IGE134 (SEQ ID NOS:155, 171), as described above for IGE120 (SEQ ID NO:131, 159). […] Additionally, combinations of Ala mutations, deletions, and other substitutions were tested.

[7] = biological target: T4, RBL-48 cells (Homo sapiens, UniProt P12319); test: histamine release assay: induction of histamine release by peptide; conditions: peptide 0.5 mM on RBL-48 cells
T4 sequence (P12319 26-257): T1 sequence (P12319 26-257)
Protocol: Peptides were assayed in a histamine release assay (Lowe et al., (1995) J. Immunol. Methods, 184:113-122) to determine: (1) if the peptides could trigger histamine release and (2) if the peptides could prevent histamine release in the presence of ragweed and ragweed specific IgE. Rat basophil cell line RBL-48, which expresses the human FcεRI alpha subunit was cultured overnight in Falcon 96 flat well microtiter dishes. The cells were washed three times with growth media and then incubated in Iscove's MEM medium containing 10% fetal bovine serum and 3 USP units per milliliter of heparin (histamine assay buffer).

[8] = IgE-inhibition activity of synthetic peptides, read-out: Inhibition activity: C+hd 50 +l (uM) ± s.d.

Compound: CC(C)[C@H](N)C(=O)N[C@@H](CCC(N)=O)C(=O)N[C@H]1CSSC[C@@H](C(=O)N[C@@H](Cc2ccc(O)cc2)C(=O)N[C@H](C(N)=O)C(C)C)NC(=O)[C@H](Cc2ccccc2)NC(=O)[C@H](Cc2c[nH]cn2)NC(=O)[C@@H]2CCCN2C1=O [IGE129, VQCPHFCYV-nh2] (H-VQCPHFCYV-NH2; disulfide 3-7)
EC50 [4]: > 90 µM

Compound: CC(C)C[C@@H]1NC(=O)[C@H](CCC(=O)O)NC(=O)[C@H](Cc2ccc(O)cc2)NC(=O)[C@@H]2CSSC[C@H](NC(=O)[C@H](CC(C)C)NC(=O)[C@H](CCC(=O)O)NC(=O)[C@H](Cc3ccc(O)cc3)NC(=O)[C@H](CC(=O)O)NC1=O)C(=O)N1CCC[C@H]1C(=O)N[C@@H](CC(=O)O)C(=O)N[C@@H](C(C)C)C(=O)N[C@H](C(=O)N[C@@H](Cc1ccc(O)cc1)C(=O)N[C@H](C(N)=O)C(C)C)CSSC[C@H](NC(=O)[C@H](CCC(N)=O)NC(=O)[C@@H](N)C(C)C)C(=O)N1CCC[C@H]1C(=O)N[C@@H](Cc1c[nH]cn1)C(=O)N[C@@H](Cc1ccccc1)C(=O)N2 [IGE134] (H-VQCPHFCYELDYELCPDVCYV-NH2; disulfide 3-19, 7-15; N-terminus assumed)
Kd [4]: 0.032 µM | relative binding affinity (in words) [6]: improved affinity over IGE122 | IC50 ([2]; average IC50, inhibition assay (Table 9)): 0.032 µM | Structure Score [3]: +++

Compound: CC(C)C[C@H](NC(=O)[C@H](C)N)C(=O)N[C@H]1CSSC[C@H](NC(=O)[C@H](CC(C)C)NC(=O)[C@H](C)N)C(=O)N2CCC[C@H]2C(=O)N[C@@H](C)C(=O)N[C@@H](C(C)C)C(=O)N[C@H](C(=O)N[C@@H](Cc2ccc(O)cc2)C(=O)N[C@H](C(N)=O)C(C)C)CSSC[C@@H](C(=O)N[C@@H](Cc2ccc(O)cc2)C(=O)N[C@H](C(N)=O)C(C)C)NC(=O)[C@H](C(C)C)NC(=O)[C@H](C)NC(=O)[C@@H]2CCCN2C1=O [IGE088, ALCPAVCYV-nh2] (I: H-ALCPAVCYV-NH2 / II: H-ALCPAVCYV-NH2; disulfide I:3-II:3, I:7-II:7; N-terminus assumed)
EC50 [4]: > 450 µM | IC50 [2, 8]: > 450 µM | Structure Score [3]: +/−

Compound: PRCTEGPWGWVCM (disulfide 3-12 (inferred); not fully specified (C-terminus))
levels of histamine released [7]: equivalent to that of the negative control

More lines, now with the values ahead:

period of conversion of monomer to disulfide linked homodimer [1]: 3 to 12 days | IC50 ([2]; IGE037: initially, read-out: IC50): ~300 µM | Structure Score [3]: +++*
Compound: CC(C)C[C@H](NC(=O)[C@H](C)N)C(=O)N[C@H]1CSSC[C@@H](C(=O)N[C@@H](Cc2ccc(O)cc2)C(=O)N[C@H](C(N)=O)C(C)C)NC(=O)[C@H](C(C)C)NC(=O)[C@H](C)NC(=O)[C@@H]2CCCN2C1=O [IGE037, ALCPAVCYV-nh2] (H-ALCPAVCYV-NH2; disulfide 3-7; N-terminus assumed)

EC50 [4]: 64 µM | inhibiting 125I-IgE binding to cell surface expressed FcεRI (in words) [2]: Significant inhibitory activity | IC50 [2, 8]: 64 µM | Structure Score [3]: +++
Compound: CC(C)C[C@H](NC(=O)[C@H](C)N)C(=O)N[C@H]1CSSC[C@@H](C(=O)N[C@@H](Cc2ccc(O)cc2)C(=O)N[C@H](C(N)=O)C(C)C)NC(=O)[C@H](C(C)C)NC(=O)[C@H](C)NC(=O)[C@@H]2CCCN2C(=O)[C@@H](NC(=O)[C@H](CC(C)C)NC(=O)[C@H](C)N)CSSC[C@@H](C(=O)N[C@@H](Cc2ccc(O)cc2)C(=O)N[C@H](C(N)=O)C(C)C)NC(=O)[C@H](C(C)C)NC(=O)[C@H](C)NC(=O)[C@@H]2CCCN2C1=O [IGE089] (I: H-ALCPAVCYV-NH2 / II: H-ALCPAVCYV-NH2; disulfide I:3-II:7, I:7-II:3)

solubility in the assay/binding buffer [5]: not soluble; also recorded: insoluble
Compound: CSCC[C@H](NC(=O)[C@@H]1CSSC[C@H](NC(=O)[C@@H](NC(=O)[C@H](C)NC(=O)[C@H](CCC(=O)O)NC(=O)[C@H](C)N)[C@@H](C)O)C(=O)N[C@@H]([C@@H](C)O)C(=O)N[C@@H](CCC(=O)O)C(=O)NCC(=O)N2CCC[C@H]2C(=O)N[C@@H](Cc2c[nH]c3ccccc23)C(=O)NCC(=O)N[C@@H](Cc2c[nH]c3ccccc23)C(=O)N[C@@H](C(C)C)C(=O)N1)C(=O)N[C@@H](C)C(=O)N[C@@H](C)C(=O)N[C@@H](CC(=O)O)C(=O)O [AEATCTEGPWGWVCMAAD] (H-AEATCTEGPWGWVCMAAD-OH; disulfide 5-14)
